Like-named read-outs stand apart in the source and are kept apart here.
How the values were obtained:
[1] = tested on: α1A‐AR expressing COS‐7 cells; assay: Phenylephrine-induced CRE reporter assay; type: cell-based; settings: 0.1 μmol/L phenylephrine; for Effect of inhibitor on diazepam modulation of phenylephrine‐stimulated CRE response / Cotreatment with diazepam, effect on phenylephrine CRE response: 50 μmol/L diazepam; for Modulation of phenylephrine CRE response by PDE inhibitor: IBMX 500 μmol/L, rolipram 10 μmol/L
Procedure: (§1) cAMP response element (CRE) response assays were performed as previously described by transfecting WT α1A‐ and α1B‐AR stably expressing COS‐7 cells, parental COS‐7 cells or parental HEK293T cells, with a β‐galactosidase expression plasmid under the control of the CRE promoter.10 CRE reporter‐transfected cells were seeded into 96‐well culture plates for 24 hours before treatment with various compounds for 6 hours at 37°C 5% CO2. Media was aspirated, and the cells frozen at −80°C for at least 24 hours before measurement of cellular β‐galactosidase expression using chlorophenol red‐β‐D‐galactopyranoside. Ligands were made up in 0.5% FBS DMEM media. […] HEK293T cells transiently transfected with GPR68 and pCRE were stimulated with sodium bicarbonate‐free, low glucose DMEM, supplemented with 20 mmol/L HEPES and 0.5% FBS at pH 6.8, 7.0, 7.2, 7.4, and 7.8. The pH was adjusted at 37°C with NaOH. Cells were incubated for 6 hours at 37°C, in a room atmosphere incubator.
Nuclear magnetic resonance (NMR) data were processed in Topspin 3.5 using squared cosine‐bells in both dimensions and zero‐filled once, prior to Fourier‐transformation. All other data was analyzed with Graphpad prism 7 (San Diego, CA, USA). All error bars are standard deviation (SD) from three independent experiments. Competition binding assays were performed in duplicate wells. Curves were fit with one site nonlinear regression. For whole cell QAPB binding, the mean QAPB fluorescence intensity (MFI) of at lease 5000 cells was measured, and plotted against QAPB concentration. Values reported represent the mean and SD of at least three K d values calculated from separate measurements. Ca^2+ mobilization data were performed in triplicate wells and normalized to the peak response elicited by 3 μmol/L ionomycin. CRE assay was conducted in triplicate, and data were normalized to the response elicited by the vehicle. Curves were fitted with three variable nonlinear regressions. For GPR68 assays, responses were normalized to CRE response at pH 6.8 (100%) and pH 7.8 (0%).

[2] = tested on: α1A‐AR expressing COS‐7 cells; type: cell-based, human; settings: 10 μmol/L forskolin; for Modulation of forskolin CRE response by PDE inhibitor: IBMX 500 μmol/L, rolipram 10 μmol/L
[3] = target: T1, WT α1B‐AR (Homo sapiens, UniProt P35368); assay: Whole cell QAPB saturation binding by flow cytometry; settings: COS‐7 cells, read-out: K d of QAPB
T1 construct: COS‐7 cells stably expressing unmodified α1B‐AR; expressed in transfected cells
T1 sequence (P35368 1-520): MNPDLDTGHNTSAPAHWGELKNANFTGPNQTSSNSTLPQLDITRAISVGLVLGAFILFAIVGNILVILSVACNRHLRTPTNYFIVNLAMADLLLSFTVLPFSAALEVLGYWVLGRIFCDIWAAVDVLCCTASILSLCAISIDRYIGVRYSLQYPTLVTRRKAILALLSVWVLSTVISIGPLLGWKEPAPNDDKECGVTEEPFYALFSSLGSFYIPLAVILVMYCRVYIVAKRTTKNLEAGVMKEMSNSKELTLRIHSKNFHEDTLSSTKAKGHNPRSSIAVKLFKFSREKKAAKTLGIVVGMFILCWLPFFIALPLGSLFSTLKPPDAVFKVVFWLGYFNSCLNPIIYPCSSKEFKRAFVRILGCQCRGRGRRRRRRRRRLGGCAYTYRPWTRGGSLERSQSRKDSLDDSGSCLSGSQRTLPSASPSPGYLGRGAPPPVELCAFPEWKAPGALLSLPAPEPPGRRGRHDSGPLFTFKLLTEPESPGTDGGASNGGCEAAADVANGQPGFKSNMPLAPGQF
Procedure: Fifty microliter of the cell suspension was added to each well of a V‐bottom 96‐well plate (Sarstead, Nümbrecht, Germany). […] To determine nonspecific binding, cells were exposed to QAPB at the same concentrations as above, but in the presence of 100 μmol/L phentolamine. The cells were incubated with ligands for 1 hour at 20°C prior to detection of bound QAPB with flow cytometry using CytoFLEX LX flow cytometer (Beckman Coulter, Brea, CA, USA).

[4] = target: α1B‐AR #15; settings: previously reported; read-out: K d of QAPB; cited from earlier work
[5] = target: α1A‐AR A4; settings: previously reported; read-out: K d of QAPB; cited from earlier work
[6] = tested on: guinea pig PDE‐4; settings: benzodiazepines unsubstituted at N‐1; cited from earlier work
[7] = target: T1, WT α1B‐AR; assay: Intracellular Ca2+ mobilization in stably expressing COS‐7 cells; type: cell-based
[8] = target: T2, WT α1A‐AR (Homo sapiens, UniProt P35348); assay: as above; type: cell-based
T2 construct: expressed in transfected cells
T2 sequence (P35348 1-466): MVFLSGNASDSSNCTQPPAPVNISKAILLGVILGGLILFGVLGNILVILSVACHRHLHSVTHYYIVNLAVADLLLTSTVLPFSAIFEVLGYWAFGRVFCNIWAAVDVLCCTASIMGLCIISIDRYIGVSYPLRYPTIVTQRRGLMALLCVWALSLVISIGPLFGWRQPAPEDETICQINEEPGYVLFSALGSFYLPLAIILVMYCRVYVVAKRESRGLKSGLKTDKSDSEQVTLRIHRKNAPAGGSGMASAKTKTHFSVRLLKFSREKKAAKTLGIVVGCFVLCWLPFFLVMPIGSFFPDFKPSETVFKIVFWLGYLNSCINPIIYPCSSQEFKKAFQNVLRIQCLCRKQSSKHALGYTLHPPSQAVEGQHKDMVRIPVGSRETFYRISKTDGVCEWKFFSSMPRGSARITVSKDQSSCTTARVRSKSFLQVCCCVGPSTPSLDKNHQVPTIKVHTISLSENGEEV

[9] = tested on: α1A‐AR A4; settings: 500 μmol/L ligand, 5 μmol/L receptor in DDM, with and without 10 μmol/L prazosin; controls DDM alone and enNTS1
[10] = tested on: α1A‐AR A4; settings: 10 nmol/L QAPB, 2 hours; benzodiazepines up to 200 μmol/L
[11] = tested on: α1B‐AR #15; assay: QAPB competition binding at purified thermostabilized receptor on paramagnetic beads; settings: 10 nmol/L QAPB, 2 hours; benzodiazepines up to 200 μmol/L
[12] = target: T3, GPR68 (Homo sapiens, UniProt Q15743); assay: GPR68 pH-stimulated CRE reporter assay; type: cell-based; settings: pH 7.2; HEK293T cells transfected with GPR68
T3 construct: expressed in transfected cells; host or cells: HEK293T (transient)
T3 sequence (Q15743 whole entry, species assumed): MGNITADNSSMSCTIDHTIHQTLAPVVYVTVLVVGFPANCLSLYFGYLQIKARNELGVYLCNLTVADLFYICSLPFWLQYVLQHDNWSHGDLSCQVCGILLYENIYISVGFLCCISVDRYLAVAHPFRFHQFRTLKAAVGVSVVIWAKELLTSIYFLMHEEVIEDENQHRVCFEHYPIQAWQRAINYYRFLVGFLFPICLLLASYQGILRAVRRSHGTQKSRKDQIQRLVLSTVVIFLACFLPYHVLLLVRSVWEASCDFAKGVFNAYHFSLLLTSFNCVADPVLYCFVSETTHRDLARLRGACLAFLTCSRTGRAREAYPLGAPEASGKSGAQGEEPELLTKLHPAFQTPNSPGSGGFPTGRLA
Procedure: as §1, with “Cells were incubated for 6 hours at 37°C, in a room atmosphere incubator.” left out
Nuclear magnetic resonance (NMR) data were processed in Topspin 3.5 using squared cosine‐bells in both dimensions and zero‐filled once, prior to Fourier‐transformation. All other data was analyzed with Graphpad prism 7 (San Diego, CA, USA). […] For whole cell QAPB binding, the mean QAPB fluorescence intensity (MFI) of at lease 5000 cells was measured, and plotted against QAPB concentration. Values reported represent the mean and SD of at least three K d values calculated from separate measurements. […]

[13] = 0 to 50 μmol/L, absence or presence of 10 nmol/L phenylephrine
[14] = not in untransfected COS‐7 cells

COC(=O)C1=C(C)NC(C)=C(C(=O)OC2CCCN(Cc3ccccc3)C2)C1c1cccc([N+](=O)[O-])c1 (centres unmarked) [benidipine]
Effect of inhibitor on diazepam modulation of phenylephrine‐stimulated CRE response [1]: significantly reduced both the phenylephrine response and the diazepam modulation of the CRE response
Effect of inhibitor on diazepam modulation of forskolin‐stimulated CRE response ([2]; 50 μmol/L diazepam): had no effect

quinazoline piperazine bodipy [QAPB]
Kd ([3]; absence of diazepam): 12 ± 3 nM
Kd ([3]; presence of 50 μmol/L diazepam): 20 ± 13 nM
Kd [4]: 8.5 nM
Kd [5]: 11.6 nM

O=C1CN=C(c2ccccc2Cl)c2cc([N+](=O)[O-])ccc2N1 [clonazepam]
Potency relative to diazepam [6]: less potent than diazepam

Cl.NCCCCCCNS(=O)(=O)c1cccc2c(Cl)cccc12 [W‐7 hydrochloride]
Effect of inhibitor on diazepam modulation of phenylephrine‐stimulated CRE response [1]: significantly reduced both the phenylephrine response and the diazepam modulation of the CRE response
Effect of inhibitor on diazepam modulation of forskolin‐stimulated CRE response ([2]; 50 μmol/L diazepam): had no significant effect on forskolin stimulation

O=C1CN=C(c2ccccc2)c2cc([N+](=O)[O-])ccc2N1 [nitrazepam]
Potency relative to diazepam [6]: less potent than diazepam

CN1CCc2cc3c(cc2[C@H]1[C@@H]1OC(=O)c2c1ccc1c2OCO1)OCO3 [bicuculline]
Effect of inhibitor on diazepam modulation of phenylephrine‐stimulated CRE response [1]: had no effect
Effect of inhibitor on diazepam modulation of forskolin‐stimulated CRE response ([2]; 50 μmol/L diazepam): had no effect

COc1ccc(C2CNC(=O)C2)cc1OC1CCCC1 (centres unmarked) [rolipram]
Cotreatment with diazepam, effect on phenylephrine CRE response [1]: had no additional positive modulatory effect
Modulation of phenylephrine CRE response by PDE inhibitor [1]: positively modulated the CRE response of phenylephrine to a similar level as diazepam
Cotreatment with diazepam versus rolipram alone, forskolin CRE response ([2]; 50 μmol/L diazepam): significantly decreased
Cotreatment with diazepam, effect on forskolin CRE response ([2]; 50 μmol/L diazepam): no additive effect was observed
Modulation of forskolin CRE response by PDE inhibitor [2]: positively modulated the CRE response of forskolin

COc1ccc(S(=O)(=O)N(CCO)c2ccccc2CN(C)C/C=C/c2ccc(Cl)cc2)cc1 [KN‐93]
Effect of inhibitor on diazepam modulation of phenylephrine‐stimulated CRE response [1]: had no significant effect
Effect of inhibitor on diazepam modulation of forskolin‐stimulated CRE response ([2]; 50 μmol/L diazepam): had no significant effect

CC(C)Cn1c(=O)n(C)c(=O)c2[nH]cnc21 [IBMX]
Cotreatment with diazepam, effect on phenylephrine CRE response [1]: had no additional positive modulatory effect
Modulation of phenylephrine CRE response by PDE inhibitor [1]: positively modulated the CRE response of phenylephrine to a similar level as diazepam
Cotreatment with diazepam, effect on forskolin CRE response ([2]; 50 μmol/L diazepam): no additive effect was observed
Modulation of forskolin CRE response by PDE inhibitor [2]: positively modulated the CRE response of forskolin

COC(=O)C1=C(C)NC(C)=C([N+](=O)[O-])[C@@H]1c1ccccc1C(F)(F)F [(R)‐(+)‐Bay K 8644]
Effect of inhibitor on diazepam modulation of phenylephrine‐stimulated CRE response [1]: had no significant effect
Effect of inhibitor on diazepam modulation of forskolin‐stimulated CRE response ([2]; 50 μmol/L diazepam): had no significant effect

NCCOB(c1ccccc1)c1ccccc1 [2‐APB]
Effect of inhibitor on diazepam modulation of phenylephrine‐stimulated CRE response [1]: had no significant effect
Effect of inhibitor on diazepam modulation of forskolin‐stimulated CRE response ([2]; 50 μmol/L diazepam): had no significant effect

O=C1Nc2ccc(Cl)cc2C(c2ccccc2Cl)=NC1O (centres unmarked) [lorazepam]
Effect on Ca2+ mobilization [7, 13]: had no effect
Potency relative to diazepam [6]: less potent than diazepam
Effect on Ca2+ mobilization [8, 13]: had no effect
STD NMR signals, interpretation [9]: nonspecific interactions with detergent micelles
QAPB displacement [10]: neither diazepam nor lorazepam displaced QAPB at either receptor
QAPB displacement [11]: neither diazepam nor lorazepam displaced QAPB at either receptor
Modulation of GPR68 CRE response [12]: positively modulated the CRE response

CNC[C@H](O)c1cccc(O)c1 [phenylephrine]
Agonist stimulation of calcium mobilization [7, 14]: stimulated calcium mobilization
Agonist stimulation of calcium mobilization [8, 14]: stimulated calcium mobilization
QAPB displacement [10]: displaced QAPB at both receptor subtypes
QAPB displacement [11]: displaced QAPB at both receptor subtypes

Reference: article PMC6306559 (Pharmacology Research & Perspectives, 2018)
